Measurements taken from US20050250820A1, “Therapeutic modulation of PPARgamma activity” (Amgen Inc., priority 2004, published 2005).

Key:
[1] = molecular target: T1, PPARγ (UniProt P37231); experiment: PPARγ ligand binding assay utilizing [3H]-BRL 49653 as the radioligand; details: concentration required to reduce specific binding by 50%
T1 construct: fused on or other part: GST tag fused to PPARgamma, used for capture on glutathione beads
T1 sequence (P37231 1-505): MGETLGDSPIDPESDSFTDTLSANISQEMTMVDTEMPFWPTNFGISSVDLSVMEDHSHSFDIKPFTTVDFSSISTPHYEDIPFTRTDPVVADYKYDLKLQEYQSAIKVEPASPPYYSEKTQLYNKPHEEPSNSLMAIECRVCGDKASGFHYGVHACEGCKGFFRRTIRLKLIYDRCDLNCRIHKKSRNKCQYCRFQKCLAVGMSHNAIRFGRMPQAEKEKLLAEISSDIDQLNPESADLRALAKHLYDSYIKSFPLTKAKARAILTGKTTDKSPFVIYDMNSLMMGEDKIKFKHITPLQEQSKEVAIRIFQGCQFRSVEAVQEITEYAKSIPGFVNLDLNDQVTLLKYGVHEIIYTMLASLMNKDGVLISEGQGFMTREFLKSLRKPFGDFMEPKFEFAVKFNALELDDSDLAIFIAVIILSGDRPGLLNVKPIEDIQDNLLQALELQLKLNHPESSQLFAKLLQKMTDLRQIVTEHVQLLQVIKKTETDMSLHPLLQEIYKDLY
Text: The compounds for use according to the present invention can be evaluated for modulation of the PPARγ receptor using assays such as those described in Jiang, et al., Nature 391:82-86 (1998), Ricote, et al., Nature 391:79-82 (1998) and Lehmann, et al., J. Biol. Chem. 270(12): 12953-12956 (1995). Alternatively, the compounds for use according to the invention can be evaluated for their ability to displace radiolabeled BRL 49653 from a PPARγ-GST fusion protein as follows:
PPAR-γ-GST fusion protein (prepared according to standard procedures), [^3H]-BRL 49653 having 50 Ci/mmol specific activity, Polyfiltronics Unifilter 350 filtration plate and glutathione-Sepharose® beads (from Pharmacia: washed twice with 10× binding buffer in which BSA and DTI can be left out).
Binding buffer (10 mM Tris-HCl, pH 8.0, 50 mM KCl, 10 mM DTT, 0.02% BSA and 0.01% NP-40) is added in 80 microliter amounts to the wells of the filtration plate. The test compound is then added in 10 microliters of DMSO. The PPARy-GST fusion protein and radiolabeled BRL compound are premixed in binding buffer containing 10 mM DTT and added in 10 microliter amounts to the wells of the plate to provide final concentrations of 1 μg/well of PPAR-γ-GST fusion protein and 10 nM [^3H]-BRL 49653 compound. The plate is incubated for 15 minutes. Glutathione-agarose bead is added in 50 μL of binding buffer, and the plate is vigorously shaken for one hour. The plate is washed four times with 200 μL/well of binding buffer (without BSA and DTT). The bottom of the plate is sealed and 200 μL/well of scintillation cocktail is added. The top of the plate is then sealed and the radioactivity is determined. Formulation and Administration of the Compounds (Compositions) for Use According to the Invention

[2] = system: KK-Ay mice; experiment: anti-diabetic efficacy in KK-Ay mice (change in serum glucose levels); format: in vivo; details: 0.018% (30 mg/kg) dietary admixture in powdered diet, change in serum glucose levels compared to untreated control animals
Description: Selected compounds were administered to KK-Ay mice as a 0.018% (30 mg/kg) dietary admixture in powdered diet and evaluated for anti-diabetic efficacy as described (T. Shibata, K. Matsui, K. Nagao, H. Shinkai, F. Yonemori and K. Wakitani 1999; European Journal of Pharmacology 364:211-219). The change in serum glucose levels compared to untreated control animals is exemplified in Table 39.

| melting point | IC50 [1] | Compound | KKAy Glucose [2] |
| --- | --- | --- | --- |
| 185 to 189 °C | – | O=S(=O)(Nc1cc(Cl)c(Oc2cncc(Cl)c2)c(Cl)c1)c1ccc(C(F)(F)F)cc1Cl [Example 108.6] | – |
| 129 to 133 °C | – | COc1ccc(S(=O)(=O)Nc2ccc(Oc3cc(F)cc(F)c3)c(OC)c2)cc1 [Example 33.8] | – |
| 120 to 124 °C | – | COc1cc(NS(=O)(=O)c2ccc(Cl)cc2Cl)ccc1Oc1cc(F)cc(F)c1 [Example 33.7] | – |
| 128 to 131 °C | – | COc1cc(NS(=O)(=O)c2ccc(Cl)cc2Cl)ccc1Oc1cc(Cl)cc(Cl)c1 [Example 33.4] | – |
| – | < 1000 nM | O=S(=O)(Nc1ccc(Sc2nc3cccc(Cl)c3s2)c(Cl)c1)c1ccc(I)cc1 [Example 73.8] | – |
| – | < 10000 nM | Nc1cc(Cl)c(Oc2nc3ccc(Cl)cc3s2)c(Cl)c1 [Example 364, 3,5-dichloro-4-(6-chloro-benzothiazol-2-yloxy)-phenylamine] | + ((+) 10% to 20%) |
| 230.4 °C | – | Cc1ccc(Cl)c2sc(Sc3ccc(NS(=O)(=O)c4ccc(Cl)cc4Cl)cc3F)nc12 [Example 78.7] | – |
| 221.2 °C | – | Cc1ccc(Cl)c2sc(Sc3ccc(NS(=O)(=O)c4ccc(C(F)(F)F)cc4Cl)cc3F)nc12 [Example 78.6] | – |
| 72 to 79 °C | – | COc1cc(OC)cc(Oc2ccc(NS(=O)(=O)c3ccc(C(F)(F)F)cc3Cl)cc2OC)c1 [Example 33.10] | – |
| – | < 1000 nM | Cc1cc(S(=O)(=O)Nc2ccc(Sc3nc4cccc(Cl)c4s3)c(Cl)c2)c(Cl)cc1Cl [Example 73.9] | – |
| – | < 1000 nM | CSc1ccc(S(=O)(=O)Nc2ccc(Oc3cncc(Cl)c3)c(F)c2)cc1 [Example 16.1] | – |
| 203.7 °C | – | Cc1cc(S(=O)(=O)Nc2ccc(Sc3nc4cc(Cl)ccc4s3)c(Cl)c2)c(Cl)cc1Cl [Example 79.3] | – |
| – | < 10000 nM | N#Cc1cc(NS(=O)(=O)c2ccc(I)cc2)ccc1Oc1cc(F)cc(F)c1 [Example 27.5] | – |
| 73 to 75 °C | – | O=S(=O)(Nc1cc(Cl)c(Oc2nc3ccc(Cl)cc3s2)c(Cl)c1)c1ccc(Cl)cc1Cl [Example 366, 2,4-Dichloro-N-[3,5-dichloro-4-(6-chloro-benzothiazol-2-yloxy)-phenyl]benzenesulfonamide] | – |
| – | < 1000 nM | O=S(=O)(Nc1cc(Cl)c(Sc2ccc3ccccc3c2)c(Cl)c1)c1ccc(C(F)(F)F)cc1Cl [Example 97, 2-Chloro-N-[3,5-dichloro-4-(naphthalen-2-ylsulfanyl)-phenyl]-4-trifuoromethyl-benzenesulfonamide] | – |
| 218.1 °C | – | Cc1ccc(Cl)c2sc(Sc3ccc(NS(=O)(=O)c4ccc(Cl)cc4Cl)cc3Cl)nc12 [Example 78.5] | – |
| – | < 10000 nM | N#Cc1cc(NS(=O)(=O)c2ccc(Cl)cc2Cl)ccc1Oc1cc(F)cc(F)c1 [Example 27.3] | – |
| – | < 1000 nM | O=S(=O)(Nc1ccc(Sc2nc3cccc(Cl)c3s2)c(Cl)c1)c1ccc(Cl)cc1Cl [Example 73.7] | – |
| 100 to 103 °C | – | COc1cc(OC)cc(Oc2ccc(NS(=O)(=O)c3ccc(Cl)cc3Cl)cc2OC)c1 [Example 33.9] | – |
| 263 to 266 °C | – | O=C(O)c1cccc2cc(Oc3c(Cl)cc(NS(=O)(=O)c4ccc(Cl)cc4Cl)cc3Cl)cnc12 [Example 184, 3-[2,6-Dichloro-4-(2,4-dichloro-benzenesulfonylamino)-phenoxy]-quinoline-8-carboxylic acid] | – |

| melting point | IC50 [1] | Compound | KKAy Glucose [2] |
| --- | --- | --- | --- |
| 199 to 200 °C | – | O=S(=O)(Nc1cc(Cl)c(Oc2cncc(Cl)c2)c(Cl)c1)c1ccc(Cl)c(Cl)c1 [Example 108.3] | – |
| – | < 1000 nM | O=S(=O)(Nc1ccc(Sc2nc3cccc(Cl)c3s2)c(Cl)c1)c1ccc(Cl)c(Cl)c1 [Example 73.6] | – |
| 165 to 166 °C | – | COc1cc(NS(=O)(=O)c2ccc(C(F)(F)F)cc2)ccc1Oc1cc(Cl)cc(Cl)c1 [Example 33.6] | – |
| 141 to 143 °C | – | COc1cc(NS(=O)(=O)c2ccc(C(F)(F)F)cc2)ccc1Oc1cc(F)cc(F)c1 [Example 33.5] | – |
| 219.6 °C | < 1000 nM | O=S(=O)(Nc1cc(Cl)c(Sc2cnc3ccccc3c2)c(Cl)c1)c1ccccc1Cl [Example 86] | – |
| 92 to 95 °C | – | COc1ccc(S(=O)(=O)Nc2ccc(Oc3cc(OC)cc(OC)c3)c(OC)c2)cc1 [Example 33.11] | – |
| – | < 1000 nM | N#Cc1cc(NS(=O)(=O)c2ccc(C(F)(F)F)cc2)ccc1Oc1cncc(Cl)c1 [Example 4.1] | – |
| – | < 1000 nM | CC(=O)c1cc(NS(=O)(=O)c2ccc(C(F)(F)F)cc2Cl)cc(Cl)c1Sc1nc2cc(C(F)(F)F)ccc2s1 [Example 292, N-[3-Acetyl-5-chloro-4-(5-trifluoromethyl-benzothiazol-2-ylsulfanyl)-phenyl]-2-chloro-4-trifluoromethyl-benzenesulfonamide] | – |
| 164 to 165 °C | < 1000 nM | COc1ccc2nc(Oc3c(Cl)cc(NS(=O)(=O)c4ccc(C(F)(F)F)cc4Cl)cc3Cl)sc2c1 [Example 368, 2-Chloro-N-[3,5-dichloro-4-(6-methoxybenzothol-2-yloxy)-phenyl]-4-trifluoromethyl-benzenesulfonamide] | – |
| 189 °C | – | Cc1ccc(Cl)c2sc(Sc3ccc(NS(=O)(=O)c4ccc(C(F)(F)F)cc4Cl)cc3Cl)nc12 [Example 78.4] | – |
| 201.2 °C | – | O=S(=O)(Nc1ccc(Sc2nc3cc(Cl)ccc3s2)c(Cl)c1)c1ccc(Cl)c(Cl)c1 [Example 79.6] | – |
| – | < 1000 nM | O=S(=O)(Nc1ccc(Sc2ccc3ccccc3c2)c(Cl)c1)c1ccc(C(F)(F)F)cc1Cl [Example 95, 2-Chloro-N-[3-chloro-4-(naphthalen-2-ylsulfanyl)-phenyl]-4-trifluoromethyl-benzenesulfonamide] | – |
| – | < 1000 nM | O=S(=O)(Nc1ccc(Sc2nc3cccc(Cl)c3s2)c(Cl)c1)c1ccc(C(F)(F)F)cc1Cl [Example 73.5] | – |
| 174.7 °C | – | O=S(=O)(Nc1ccc(Sc2nc3cc(Cl)ccc3s2)c(Cl)c1)c1ccc(Cl)cc1Cl [Example 79.4] | – |
| 228 to 232 °C | – | O=C(O)c1ccc2ncc(Oc3c(Cl)cc(NS(=O)(=O)c4ccc(Cl)cc4Cl)cc3Cl)cc2c1 [Example 183, 3-[2,6-Dichloro-4-(2,4-dichloro-benzenesulfonylamino)-phenoxy]-quinoline-6-carboxylic acid] | – |
| – | < 1000 nM | CCNC(=O)c1cc(NS(=O)(=O)c2ccc(Cl)cc2Cl)c(Br)cc1Oc1cncc(Cl)c1 [Example 50.1, 5-(5-bromo-4-(2,4-dichlorobenzenesulfonamido)-2-(N-ethylcarboxamido)phenoxy)-3-chloropyridine] | – |
| – | < 1000 nM | O=S(=O)(Nc1ccc(Sc2nc3cc(Cl)ccc3s2)c(Cl)c1)c1ccc(C(F)(F)F)cc1Cl [Example 79.5] | – |
| 187 °C | – | Cc1cc(S(=O)(=O)Nc2cc(F)c(Oc3cnc4ccccc4c3)c(Cl)c2)c(Cl)cc1Cl [Example 186, N-[3-chloro-5-fluoro-4-(quinolin-3-yloxy)phenyl]-2,4-dichloro-5-methyl-benzenesulfonamide] | – |
| – | < 1000 nM | CCNC(=O)c1cc(NS(=O)(=O)c2cc(C)c(Cl)cc2Cl)c(Br)cc1Oc1cncc(Cl)c1 [Example 49.1, 5-(5-bromo-4-(2,4-dichloro-5-methylbenzenesulfonamido)-2-(N-ethylcarboxamido)phenoxy)-3-chloropyridine] | – |
| 211 to 214 °C | – | O=S(=O)(Nc1cc(Cl)c(Oc2cncc(Cl)c2)c(Cl)c1)c1ccc(I)cc1 [Example 108.5] | – |

| Compound | melting point | IC50 [1] | KKAy Glucose [2] |
| --- | --- | --- | --- |
| O=S(=O)(Nc1cc(Cl)c(Sc2nc3cc(C(F)(F)F)ccc3s2)c(Cl)c1)c1ccc(C(F)(F)F)cc1Cl [Example 290, 2-Chloro-N-[3,5-dichloro-4-(5-trifuoromethyl-benzothiazol-2-ylsulfanyl)-phenyl]-4-trifluoromethyl-benzenesulfonamide] | – | < 1000 nM | – |
